Common to all, as to type: cell-based
Test [1] concerns MDA-MB-231 cells. Nature of the test: PARP cleavage assay (Western blotting), MDA-MB-231. Conditions: 6 hours. From the text:
Compound 1a had no effect under the same conditions (FIG. 1A). […] Compound 1a, 28a, 47a, 48a, 73a, 39a, 70a, 103a, 89a and 88a had no effect under the same conditions (FIG. 3B-C).
In general terms: In western blotting, separated proteins are transferred to a membrane and probed.

Test [2] concerns mTOR markers p-S6 and p-4EBP1. The test is described as follows: mTOR inhibition: expression of mTOR markers. Particulars: MDA-MB-231 cells, 1 μM, 6 hours.
Test [3] deals with HCT116 cancer cells. The test is described as follows: Cell viability (MTT) assay, HCT116. Conditions: Homo sapiens, HCT-116; inhibiting the growth of HCT116 cancer cells, cell viability assay (Table 5). The protocol:
(§1) Cell viability was analyzed by using a colorimetric 3-(4,5-dimethylthiazol-[…]2-yl)-2,5-diphenyletetrazolium Bromide (MTT) assay that determines mitochondrial dehydrogenase activities in the living cells with a colorimetric method. Cells treated with test compounds were incubated with MTT and their effect on the viability of the cells was assayed by the ability of treated cells to reduce the yellow tetrazolium dye MTT to its insoluble formazan, which has a purple color. […]

In test [4] the test system is MDA-MB-231 cancer cells. The test is described as follows: Cell viability (MTT) assay, MDA-MB-231. Conditions: Homo sapiens; inhibiting the growth of MDA-MB-231 cancer cells, cell viability assay (Table 6). On the procedure:
as §1

Results on 23 compounds are retold here after patent US20210024499A1, “OXIDIZED BIS(3-INDOLYL)METHANES AND USES THEREOF” (Sanford Burnam Prebys Medical Discovery Institute, priority 2018, published 2021).

Each structure is given as a SMILES string.

Turning to `Fc1ccc2[nH]cc([C+](c3ccc(C(F)(F)F)cc3)c3c[nH]c4ccc(F)cc34)c2c1` [Compound 10, Bis(5-fluoro-1H-indol-3-yl)(4-(trifluoromethyl)phenyl)methylium methanesulfonate], the PARP cleavage result in test [1] (1 μM) was “effectively induce PARP cleavage”. Also, in test [2], the “expression levels of mTOR markers p-S6 and p-4EBP1” value is listed as “reduced the expression levels”.

With `Cn1cc([C+](c2ccc(C(F)(F)F)cc2)c2cn(C)c3ccccc23)c2ccccc21` [Compound 11, Bis(1-methyl-1H-indol-3-yl)(4-(trifluoromethyl)phenyl)methylium methanesulfonate], the PARP cleavage entry in test [1] (1 μM) was “effectively induce PARP cleavage”. In test [2], the “expression levels of mTOR markers p-S6 and p-4EBP1” value is reported as “reduced the expression levels”.

`Cc1ccc2[nH]cc([C+](c3ccc(C(F)(F)F)cc3)c3c[nH]c4ccc(C)cc34)c2c1` [Compound 15, Bis(5-methyl-1H-indol-3-yl)(4-(trifluoromethyl)phenyl)methylium methanesulfonate]: the PARP cleavage entry in test [1] (1 μM) is given as “effectively induce PARP cleavage”. Also, the “expression levels of mTOR markers p-S6 and p-4EBP1” value in test [2] was “reduced the expression levels”.

On to `Cc1ccc2c([C+](c3ccc(C(F)(F)F)cc3)c3c[nH]c4cc(C)ccc34)c[nH]c2c1` [Compound 18, Bis(6-methyl-1H-indol-3-yl)(4-(trifluoromethyl)phenyl)methylium chloride], for which the PARP cleavage result in test [1] (1 μM) is reported as “effectively induce PARP cleavage”. In addition, the “expression levels of mTOR markers p-S6 and p-4EBP1” value in test [2] is “reduced the expression levels”.

Take `Fc1ccc2c([C+](c3ccc(C(F)(F)F)cc3)c3c[nH]c4cc(F)ccc34)c[nH]c2c1` [Compound 21, Bis(6-fluoro-1H-indol-3-yl)(4-(trifluoromethyl)phenyl)methylium methanesulfonate]: in test [1] (1 μM), the PARP cleavage result was “effectively induce PARP cleavage”. Also, the “expression levels of mTOR markers p-S6 and p-4EBP1” value in test [2] is reported as “reduced the expression levels”.

Turning to `Cl.Fc1ccc2c([C+](c3ccc(C(F)(F)F)cc3)c3c[nH]c4cc(F)ccc34)c[nH]c2c1` [Compound 22, Bis(6-fluoro-1H-indol-3-yl)(4-(trifluoromethyl)phenyl)methylium chloride], the PARP cleavage entry in test [1] (1 μM) is reported as “effectively induce PARP cleavage”. The “expression levels of mTOR markers p-S6 and p-4EBP1” value in test [2] is recorded as “reduced the expression levels”.

For the compound `FC(F)(F)c1ccc([C+](c2c[nH]c3cc(Cl)ccc23)c2c[nH]c3cc(Cl)ccc23)cc1` [Compound 24, Bis(6-chloro-1H-indol-3-yl)(4-(trifluoromethyl)phenyl)methylium methanesulfonate], the PARP cleavage entry in test [1] (1 μM) was “effectively induce PARP cleavage”. Besides, the “expression levels of mTOR markers p-S6 and p-4EBP1” value in test [2] is recorded as “reduced the expression levels”.

As for `FC(F)(F)Oc1ccc([C+](c2c[nH]c3ccccc23)c2c[nH]c3ccccc23)cc1.[Cl-]` [Compound 39, Bis(1H-indol-3-yl)(4-(trifluoromethoxy)phenyl)methylium chloride], the PARP cleavage entry is on record as “effectively induced PARP cleavage” in test [1] (0.5 μM) and “effectively induce PARP cleavage” in test [1] (1 μM). Besides, the IC50 in test [3] and in test [4] was 0.5 to 5 µM in each case. In test [2], the “expression levels of mTOR markers p-S6 and p-4EBP1” value is “reduced the expression levels”.

As to `Fc1cccc2[nH]cc([C+](c3ccc(C(F)(F)F)cc3)c3c[nH]c4cccc(F)c34)c12.[Cl-]` [Compound 43, Bis(4-fluoro-1H-indol-3-yl)(4-(trifluoromethyl)phenyl)methylium chloride], the PARP cleavage entry in test [1] (1 μM) is “effectively induce PARP cleavage”. Also, in test [2], the “expression levels of mTOR markers p-S6 and p-4EBP1” value was “reduced the expression levels”.

As for `Oc1ccc2[nH]cc([C+](c3ccc(C(F)(F)F)cc3)c3c[nH]c4ccc(O)cc34)c2c1.[Cl-]` [Compound 46, Bis(5-hydroxy-1H-indol-3-yl)(4-(trifluoromethyl)phenyl)methylium chloride], the PARP cleavage entry in test [1] (1 μM) was “effectively induce PARP cleavage”. For the same compound, in test [2], the “expression levels of mTOR markers p-S6 and p-4EBP1” value was “reduced the expression levels”.

Take `CCn1cc([C+](c2ccc(C(F)(F)F)cc2)c2c[nH]c3ccccc23)c2ccccc21.[Cl-]` [Compound 47, (1-Ethyl-1H-indol-3-yl)(1H-indol-3-yl)(4-(trifluoromethyl)phenyl)methylium chloride]: in test [1] (0.5 μM), the PARP cleavage result is recorded as “effectively induced PARP cleavage”. For the same compound, the IC50 in test [3] and in test [4] was less than 0.5 µM in each case.

For `CCCCn1cc([C+](c2ccc(C(F)(F)F)cc2)c2c[nH]c3ccccc23)c2ccccc21.[Cl-]` [Compound 49, (1-Butyl-1H-indol-3-yl)(1H-indol-3-yl)(4-(trifluoromethyl)phenyl)methylium chloride], the PARP cleavage result in test [1] (1 μM) is “effectively induce PARP cleavage”. The “expression levels of mTOR markers p-S6 and p-4EBP1” value in test [2] is “reduced the expression levels”.

In the case of `Cc1ccc2c([C+](c3ccc(C(F)(F)F)cc3)c3c[nH]c4ccccc34)c[nH]c2c1.[Cl-]` [Compound 54, (6-Methyl-1H-indol-3-yl)(1H-indol-3-yl)(4-(trifluoromethyl)phenyl)methylium chloride], the PARP cleavage result in test [1] (1 μM) is listed as “effectively induce PARP cleavage”. The “expression levels of mTOR markers p-S6 and p-4EBP1” value in test [2] is “reduced the expression levels”.

`Cc1cccc2c([C+](c3ccc(C(F)(F)F)cc3)c3c[nH]c4ccccc34)c[nH]c12.[Cl-]` [Compound 55, (7-Methyl-1H-indol-3-yl)(1H-indol-3-yl)(4-(trifluoromethyl)phenyl)methylium chloride]: in test [1] (1 μM), the PARP cleavage entry is “effectively induce PARP cleavage”. Also, the “expression levels of mTOR markers p-S6 and p-4EBP1” value in test [2] is “reduced the expression levels”.

Turning to `Cc1ccc2[nH]cc([C+](c3ccc(C(F)(F)F)cc3)c3c[nH]c4ccccc34)c2c1.[Cl-]` [Compound 57, (5-Methyl-1H-indol-3-yl)(1H-indol-3-yl)(4-(trifluoromethyl)phenyl)methylium chloride], the PARP cleavage entry in test [1] (1 μM) is “effectively induce PARP cleavage”. In test [2], the “expression levels of mTOR markers p-S6 and p-4EBP1” value is given as “reduced the expression levels”.

As to `Fc1cccc2c([C+](c3ccc(C(F)(F)F)cc3)c3c[nH]c4c(F)cccc34)c[nH]c12.[Cl-]` [Compound 62, Bis(7-fluoro-1H-indol-3-yl)(4-(trifluoromethyl)phenyl)methylium chloride], the PARP cleavage result in test [1] (1 μM) is “effectively induce PARP cleavage”. Also, the “expression levels of mTOR markers p-S6 and p-4EBP1” value in test [2] is reported as “reduced the expression levels”.

In the case of `FC(F)(F)c1ccc([C+](c2c[nH]c3cc(Cl)ccc23)c2c[nH]c3cc(Cl)ccc23)cc1.[Cl-]` [Compound 67, Bis(6-chloro-1H-indol-3-yl)(4-(trifluoromethyl)phenyl)methylium chloride], the PARP cleavage result in test [1] (1 μM) is “effectively induce PARP cleavage”. For the same compound, in test [2], the “expression levels of mTOR markers p-S6 and p-4EBP1” value is “reduced the expression levels”.

With `Fc1ccc2c([C+](c3ccc(C(F)(F)F)cc3)c3c[nH]c4ccccc34)c[nH]c2c1.[Cl-]` [Compound 70, (6-Fluoro-1H-indol-3-yl)(1H-indol-3-yl)(4-(trifluoromethyl)phenyl)methylium chloride], the PARP cleavage entry in test [1] (0.5 μM) is on record as “effectively induced PARP cleavage”. Also, the IC50 in test [3] and in test [4] was less than 0.5 µM each time.

For `Fc1cccc2[nH]cc([C+](c3ccc(C(F)(F)F)cc3)c3c[nH]c4ccccc34)c12.[Cl-]` [Compound 72, (4-Fluoro-1H-indol-3-yl)(1H-indol-3-yl)(4-(trifluoromethyl)phenyl)methylium chloride], the PARP cleavage result in test [1] (1 μM) is given as “effectively induce PARP cleavage”. Moreover, the “expression levels of mTOR markers p-S6 and p-4EBP1” value in test [2] is reported as “reduced the expression levels”.

`FC(F)(F)c1ccc([C+](c2cn(-c3ccccc3)c3ccccc23)c2cn(-c3ccccc3)c3ccccc23)cc1.[Cl-]` [Compound 74, Bis(1-phenyl-1H-indol-3-yl)(4-(trifluoromethyl)phenyl)methylium chloride]: in test [1] (1 μM), the PARP cleavage result is recorded as “effectively induce PARP cleavage”. In addition, the “expression levels of mTOR markers p-S6 and p-4EBP1” value in test [2] is reported as “reduced the expression levels”.

As for `Cn1cc([C+](c2ccc(C(F)(F)F)cc2)c2c[nH]c3ccccc23)c2ccc(F)cc21.[Cl-]` [Compound 88, (6-Fluoro-1-methyl-1H-indol-3-yl)(1H-indol-3-yl)(4-(trifluoromethyl)phenyl)-methylium chloride], the PARP cleavage entry in test [1] (0.5 μM) is listed as “effectively induced PARP cleavage”. Moreover, the IC50 in test [3] and in test [4] was less than 0.5 µM each time.

As for `Cn1cc([C+](c2ccc(C(F)(F)F)cc2)c2c[nH]c3c(F)cccc23)c2ccccc21.[Cl-]` [Compound 89, (7-Fluoro-1H-indol-3-yl)(1-methyl-1H-indol-3-yl)(4-(trifluoromethyl)phenyl)-methylium chloride], in test [1] (0.5 μM), the PARP cleavage entry is reported as “effectively induced PARP cleavage”. The IC50 in test [3] and in test [4] was less than 0.5 µM throughout.

Take `Fc1cc([C+](c2c[nH]c3ccccc23)c2c[nH]c3ccccc23)ccc1C(F)(F)F.[Cl-]` [Compound 103, (3-Fluoro-4-(trifluoromethyl)phenyl)di(1H-indol-3-yl)methylium chloride]: the PARP cleavage result in test [1] (0.5 μM) is on record as “effectively induced PARP cleavage”. For the same compound, the IC50 in test [3] and in test [4] was less than 0.5 µM in each case.
